Test results: ChEMBL document CHEMBL1240432, “Synthesis and preliminary bioactivity assays of 3,4-dichloro-5-(omega-hydroxyalkylamino)-2(5H)-furanones” (Eur J Med Chem, 2010)

Legend:
[1] = test system: Mycobacterium tuberculosis; assay: Antitubercular activity against Mycobacterium tuberculosis H37Rv by microplate alamar blue assay; format: functional, organism-based
Plasmodium falciparum = assay: Antiprotozoal activity against Plasmodium falciparum K1 infected in human erythrocytes at 4.8 ug/m after 72 hrs by [3H]hypoxanthine incorporation; format: functional
Trypanosoma cruzi = assay: Antiprotozoal activity against Trypanosoma cruzi Tulahuen C2C4 infected in rat skeletal myoblast at 4.8 ug/ml after 48 hrs; format: functional; conditions: Tulahuen C2C4, 48 h
[2] = test system: Trypanosoma brucei rhodesiense; assay: Antiprotozoal activity against Trypanosoma brucei rhodesiense STIB900 at 4.8 ug/mL by microplate alamar blue assay; format: functional
Leishmania donovani = assay: Antiprotozoal activity against Leishmania donovani MHOM/ET/67/L82 at 4.8 ug/m after 72 hrs by fluorimetry; format: functional

Structure (SMILES): O=C1OC(NCC(O)CO)C(Cl)=C1Cl (stereo unspecified)
- IC50 [1]: > 100 µg/mL
- IC90 [1]: > 100 µg/mL

Structure (SMILES): C[C@@H]1CC[C@H]2[C@@H](C)C(=O)O[C@@H]3O[C@@]4(C)CC[C@@H]1[C@]32OO4 [ARTEMISININ]
- inhibition (INH) (Plasmodium falciparum): 100%

Structure (SMILES): O=C(Cn1ccnc1[N+](=O)[O-])NCc1ccccc1 [BENZNIDAZOLE]
- inhibition at 4.8 µg/mL (Trypanosoma cruzi): 89.6%

Structure (SMILES): Nc1nc(N)nc(Nc2ccc([As]3SCC(CO)S3)cc2)n1 (stereo unspecified) [MELARSOPROL]
- inhibition at 4.8 µg/mL [2]: 98.2%

Structure (SMILES): CCCCCCCCCCCCCCCCOP(=O)([O-])OCC[N+](C)(C)C [MILTEFOSINE]
- inhibition (INH) (Leishmania donovani): 92.5%
